# Legend:
# [1] = system: Collagen I in human lung fibroblasts MRC-5; test: TGF-β-induced Collagen I expression in MRC-5 cells, Western blot; type: cell-based; details: MRC-5, TGF-β (5 ng/ml), GO88 0.5 μM and 1 μM, 24 hours
# Procedure: To confirm that the compound of the present invention directly acts on fibrosis-related mechanisms, in vitro experiments were performed using human lung fibroblasts MRC-5 cell lines (Korea Cell Bank).
# First, MRC-5 cells were seeded at 5×10^3 cells per well in a 6-well plate and stabilized for 24 hours.
# Subsequently, experimental groups were established, including a control group, a group treated with TGF-β (5 ng/ml) alone, and groups treated with TGF-β and the compound GO88 from the present invention at concentrations of 0.5 μM and 1 μM, respectively.
# After treating each group with the drugs for 24 hours, the cell medium was removed, and the cells were washed twice with cold PBS. Then, RIPA lysis buffer containing phosphatase inhibitor and protease inhibitor was added to each group to extract proteins.
# The extracted proteins were incubated at 4° C. for 30 minutes, then centrifuged at 13,000 rpm for 15 minutes, and the supernatant was collected. The total protein concentration was measured using the BCA protein quantification method.
# Subsequently, the proteins were separated by SDS-PAGE, transferred to a PVDF membrane, and Western blot analysis was performed.
# The expression levels of Collagen I, a marker related to pulmonary fibrosis, were confirmed, with GAPDH used as an internal control.
# [2] = system: MRL/lpr mice; test: Lupus animal model (MRL/lpr mice); type: in vivo, mouse; details: 41-week-old female MRL/lpr mice; GO15F (30 mg/kg), GO48 (1 mg/kg), GO88 (0.5 mg/kg) intraperitoneally once daily
# Excerpt: The MRL/MpJ-Faslpr/J (Hereinafter Referred to as “MRL/lpr”) used in this experiment is one of the representative animal models for systemic lupus erythematosus (SLE), known to produce various autoantibodies, including antinuclear antibodies, due to the lpr (lymphoproliferation) gene.
# In this invention, the period up to 9 weeks of age was considered the pre-disease stage, and the period after 23 weeks of age was considered the post-disease stage, and efficacy verification experiments using this model were conducted.
# MRL/lpr mice were imported from The Jackson Laboratory and acclimatized for one week in an SPF (Specific Pathogen Free) facility maintained at a temperature of 21-24° C., humidity of 40-60%, and a 12-hour light-dark cycle (lights on at 7:00 AM, lights off at 7:00 PM). […]
# The serum separated at the time of necropsy of the lupus animal model was analyzed using the ‘IgG (Total) Mouse Uncoated ELISA Kit (Invitrogen, Cat. #88-50400)’ to measure the concentration of total IgG.
# Capture antibody (anti-mouse IgG) diluted 1/250 in coating buffer was added to each well of a 96-well plate (Nunc™ MaxiSorp™ ELISA Plates, Uncoated, BioLegend, Cat. #423501) at 100 μl per well, and the plate was incubated at 4° C. for 16 hours.
# To investigate the effect of GO15F administration on changes in the ratio of immune cells in the spleen of a lupus animal model, the spleens of mice administered each compound were excised, cells were extracted, and the cells were suspended in MACS buffer (autoMACS Washing Solution, Miltenyi Biotec., Cat. #130-092-987).
# For flow cytometry analysis, FACS tubes (5 mL round tubes, Falcon, Cat. #352052) were used. To prevent non-specific binding of antibodies, 1 μg/mL of anti-mouse CD16/CD32 (InVivoPlus anti-mouse CD16/CD32, BioXCell, Cat. #BP0307) for 30 minutes to prevent non-specific binding of the antibody, then centrifuge at 1,500 rpm for 5 minutes and resuspend in 100 μL of MACS buffer.
# For B cells, each FACS tube was stained with 1 μg/mL of FITC-conjugated anti-B220 antibody (eBioscience™, Cat. #11-0452-81) at 4° C. for 30 minutes, then washed with 2 mL of MACS buffer.
# For T cells, each FACS tube was stained with 1 μg/mL PerCP-Cy5.5-conjugated anti-CD3 (Biolegend, Cat. #100218) at 4° C. for 30 minutes.
# For macrophages, each FACS tube was stained with 1 μg/mL of PE-conjugated anti-CD11b antibody (Biolegend, Cat. #101207) and PerCP-Cy5.5-conjugated anti-F4/80 (Biolegend, Cat. #123128) and incubated at 4° C. for 30 minutes. The tubes were then washed with 2 mL of MACS buffer.
# To investigate the effects of compound GO15F according to the present invention on systemic immune responses in a lupus animal model, gene expression analysis of cytokines in kidney tissue was performed as described in (1).
# Each kidney tissue was used to isolate total RNA using TRIzol™ (Invitrozen, Cat. #15596018). RNA from each mouse was quantified at 1 μg using a micro-quantitative spectrophotometer (ThermoFisher Scientific, ND2000) and cDNA was synthesized.
# The synthesized cDNA from each mouse was quantified to a concentration of 50 ng using a micro-quantitative spectrophotometer, and qPCR was performed for the cytokines ‘IL-2, IL-6, IL-10, IL-17, TNF-α, IFN-γ’ using a SYBR green probe (CFX96, BIO-RAD).
# To investigate the effects of drug administration on renal tissue in MRL/lpr mice, the tissue was fixed in 10% neutral buffered formalin at room temperature, followed by stepwise ethanol penetration for dehydration. The tissue was then embedded in xylene and paraffin.
# The blocked tissues were sectioned into 4 μm thick slices using a microtome, followed by deparaffinization, hydration, and staining.
# Hematoxylin & Eosin staining, PAS staining, and Masson trichrome staining were performed for pathological evaluation of the tissues. […]
smiles,measurement,setting,value
"Nc1ncccc1C(=O)NCCCCCCCCCCCCN1CCNCC1 [Compound 14, 2-Amino-N-(12-(piperazin-1-yl)dodecyl)nicotinamide]",protein expression of Collagen I,[1],inhibited in a concentration-dependent manner
same,hair growth on the facial region,[2],hair growth was confirmed
